{"source": "patent US9446084B2", "about": "“Use of free radical scavengers for protecting and treating skin and hair damages caused by chemotherapy” (Coty Prestige Lancaster Group GmbH, priority 2005, dated 2016)", "key": {"[1]": {"conditions": "RPF 'is known'; cited from earlier work"}, "[2]": {"test": "Radical protection factor (RPF) by electron spin resonance (ESR) against a test radical", "type": "biochemical", "from_the_text": "S2=signal amplitude of the antioxidant.\nAs has already been described, the radical protection factor (RPF) determines the activity of a substance for binding free radicals against a test substance. This test substance consists of a highly reactive, semi-stable radical which reacts with all known antioxidation agents. Such radicals include nitroxides such as proxo (2.2,5.5-tetramethyl-1-dihydropyrrolinoxy-nitroxide), tempol (2.2,6.6-tetramethyl-1-piperidinoxy-4-ol-nitroxide), DTBN (di-tert-butyl-nitroxide or preferably DPPH (1.1-diphenyl-2-picryl-hydrazyl.\nThe RPF is measured in such a way that the signal amplitudes of the test radical created by electron spin resonance (ESR/EPR) are measured before and after mixing with an antioxidation agent/scavenger, and the RPF is calculated from this.\nInd. […] Here, based on the known concentration of the test substance (here: DPPH) or the number of its free radicals (radicals per ml), a signal amplitude S1 is measured using an ESR spectrometer. The test radical is dissolved in the same way as the antioxidation agent in a (e.g. 0.1 m) water/alcohol solution. Then the signal amplitude S2 of the antioxidation agent is measured. The normalised difference between the two signal amplitudes is the reduction factor RF RF=(S1-S2)/S1. The result of the radical reduction of the test substance RC×RF is normalised in relation to the quantity of the product input PI (mg/ml). Here, the RC is the quantity of the test substance, i.e. the known number of radicals in the test substance. The radical protection factor is calculated according to the following equation: […]\nThe radical protection factor can be determined using an ESR spectrometer (GALENUS GmbH, Berlin, Germany), and is a value for labelling products with regard to their ability to bind free radicals. The procedure is an in-vitro procedure, in which no individual properties of the user influence the antioxidants."}}}
{"molecule": "CC1=C(/C=C/C(C)=C/C=C/C(C)=C/CO)C(C)(C)CCC1", "note": "[all-trans-retinol]", "values": [{"measurement": "RPF known for standard antioxidation agents", "setting": "[1]", "result": "827 ×10^14 radicals/mg"}]}
{"molecule": "O=C(/C=C/c1ccc(O)c(O)c1)O[C@H](Cc1ccc(O)c(O)c1)C(=O)O", "note": "[rosemary acid]", "values": [{"measurement": "RPF (radical protection factor)", "setting": "[2]; radical scavenger as such, ESR", "result": "36000-68000 ×10^14 radicals/mg"}]}
{"molecule": "O=C(OC[C@H]1O[C@@H](OC(=O)c2cc(O)c(O)c(OC(=O)c3cc(O)c(O)c(O)c3)c2)[C@H](OC(=O)c2cc(O)c(O)c(OC(=O)c3cc(O)c(O)c(O)c3)c2)[C@@H](OC(=O)c2cc(O)c(O)c(OC(=O)c3cc(O)c(O)c(O)c3)c2)[C@@H]1OC(=O)c1cc(O)c(O)c(OC(=O)c2cc(O)c(O)c(O)c2)c1)c1cc(O)c(O)c(OC(=O)c2cc(O)c(O)c(O)c2)c1", "note": "[tannic acid]", "values": [{"measurement": "RPF (radical protection factor)", "setting": "[2]; radical scavenger as such, ESR", "result": "310000 ×10^14 radicals/mg"}]}
{"molecule": "CC(=O)Oc1c(C)c(C)c2c(c1C)CCC(C)(CCC[C@H](C)CCC[C@H](C)CCCC(C)C)O2", "note": "(stereo partly drawn) [α-tocopherylacetate]", "values": [{"measurement": "RPF known for standard antioxidation agents", "setting": "[1]", "result": "48 ×10^14 radicals/mg"}]}
{"molecule": "cyclodextrines", "values": [{"measurement": "RPF (radical protection factor)", "setting": "[2]; unit not given", "result": 0}]}
{"molecule": "Cc1c(C)c2c(c(C)c1O)CCC(C)(CCCC(C)CCCC(C)CCCC(C)C)O2", "note": "(racemic) [DL-α-tocopherol]", "values": [{"measurement": "RPF known for standard antioxidation agents", "setting": "[1]", "result": "41200 ×10^14 radicals/mg"}]}
{"molecule": "O=C1O[C@H]([C@@H](O)CO)C([O-])=C1OP(=O)([O-])[O-].[Na+].[Na+].[Na+]", "note": "[natrium-ascorbyl-phosphate]", "values": [{"measurement": "RPF (radical protection factor)", "setting": "[2]; radical scavenger as such, ESR", "result": "35000 ×10^14 radicals/mg"}]}
{"molecule": "CC(=O)OC/C=C(C)/C=C/C=C(C)/C=C/C1=C(C)CCCC1(C)C", "note": "[all-trans-retinolacetate]", "values": [{"measurement": "RPF known for standard antioxidation agents", "setting": "[1]", "result": "196 ×10^14 radicals/mg"}]}
